This note sets out measurements from patent US20260226084A1, “DUAL RAF AND TUBULIN INHIBITORS AND METHODS OF USE THEREOF” (Deciphera Pharmaceuticals, LLC, priority 2023, published 2026).

Structures are written as SMILES. Read-outs that look alike come from different tables or passages of the source.

The test system of test [1] is MiaPaca-2 cells. The experiment in a line: MiaPaca-2 Cell Proliferation Assay. In kind it is cell-based. The conditions noted are these: Homo sapiens. The method in brief:
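Viability was read as resazurin fluorescence (540 nm excitation, 600 nm emission) after 5–6 h with dye. Compounds were tested as serial dilutions in triplicate, with IC50 derived from the dose–response.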

Test [2] deals with Pa16c cells. Nature of the test: Pa16c Cell Proliferation Assay. Type of test: cell-based. The conditions noted are these: Table 2, read-out: Inhibition of cell proliferation in Pa16c (IC50 class). The essentials:
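Proliferation read-out: resazurin fluorescence (540 nm excitation, 600 nm emission) after an extra 18 to 24 h. Before that, compound dilution series (triplicate) stayed on 750 Pa16c cells/well in complete DMEM/10% FBS for 67 to 72 h at 37° C. IC50 values derived from the curves.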

Test [3] concerns HCT-116 cells. Nature of the test: HCT-116 Cell Proliferation Assay. Type of test: cell-based. The conditions noted are these: Homo sapiens. The essentials: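 IC50 values come from resazurin fluorescence (540 nm excitation, 600 nm emission) added for 4 to 5 h after compound treatment. Treatment: serially diluted compound in triplicate on 375 HCT-116 cells per well in complete McCoy's 5A/10% FBS, 67 to 72 hours, 37 °C, 5% CO2.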

In test [4] the test system is tubulin polymerization in HCT-116 cells. The experiment in a line: Cellular Tubulin Polymerization Assay. In kind it is cell-based. To be noted: Homo sapiens, Table 3, read-out: Tubulin Cellular (IC50 class). The procedure: HCT-116 cells (catalog #CCL-247) are obtained from the American Type Culture Collect (ATCC, Manassas, VA). Briefly, cells are grown in McCoy's 5A supplemented with 10% characterized fetal bovine serum (Invitrogen, Carlsbad, CA) and 1% Penicillin/Streptomycin/L-Glutamine at 37° C., 5% CO2, and 95% humidity. Cells are expanded until reaching 70-95% confluency at which point they are subcultured or harvested for assay use. 450000 cells are added per well in 1500 μL complete growth medium in a tissue culture treated, 12-well plate. Plates are incubated for 18 to 24 h at 37° C., 5% CO2, and 95% humidity. At the end of the incubation, 2000 μL of base culture media is added to each well, followed by a serial dilution of compound. Plates are incubated for an additional 1 h at 37° C., 5% CO2, and 95% humidity. Lysates are generated by the addition of 100 μL Lysis and Microtubule Stabilization Buffer 1 (LMS01, Cytoskeleton Inc, Denver, CO) supplemented with GTP (BST06, Cytoskeleton Inc), ATP (BSA04, Cytoskeleton Inc), and Protease Inhibitor Cocktail Stock (PIC02, Cytoskeleton Inc). Cells are scraped off wells using a rubber cell scraper and collected in a clean 96-well plate. Lysates are centrifuged at 1000×g, 37° C. for 10 min and supernatant fraction is placed into an additional 96-well plate. The remaining pellet fraction is reconstituted in 100 μL LMS01 buffer and sonicated for 10 min. Pellet and Supernatant fractions are probed for α-tubulin via western blot analysis on the Jess System or equivalent (Bio-techne, Minneapolis, MN). Data is analyzed using Prism software (Graphpad, San Diego, CA) to calculate IC50values.

Test [5] has as its target T1, B-Raf kinase (SEQ ID NO: 1) (Homo sapiens, UniProt P15056).
T1 construct: GST (N); purchased Sigma
The experiment in a line: Biochemical Assay for B-Raf (coupled pyruvate kinase/lactate dehydrogenase assay).

Test [6] concerns the target T2, C-Raf kinase (SEQ ID NO: 2) (Homo sapiens, UniProt P04049, Y340D/Y341D).
T2 construct: C-Raf residues 306-end; Y340D, Y341D with; GST (N); purchased Sigma
Nature of the test: Biochemical Assay for C-Raf (coupled pyruvate kinase/lactate dehydrogenase assay).

Setting [7] is: MIA PaCa-2, MiaPaca-2 cells, Table 2, read-out: Inhibition of cell proliferation in MiaPaca-2 (IC50 class).
Where [8] appears, read: MIA PaCa-2, Table 3, read-out: MiaPaca-2 (IC50 class).
Where [9] appears, read: HCT-116, HCT-116 cells, Table 2, read-out: Inhibition of cell proliferation in HCT-116 (IC50 class).
[10] abbreviates: HCT-116, Table 3, read-out: HCT-116 (IC50 class).
Setting [11] is: 1 mM ATP, read-out: BRAF (inhibition of biochemical activity, IC50).
Where [12] appears, read: Table 3, read-out: BRAF (IC50 class).
Setting [13] is: 1 mM ATP, read-out: CRAF (inhibition of biochemical activity, IC50).
Where [14] appears, read: Table 3, read-out: CRAF (IC50 class).

T2 sequence (P04049 307-648 Y340D/Y341D): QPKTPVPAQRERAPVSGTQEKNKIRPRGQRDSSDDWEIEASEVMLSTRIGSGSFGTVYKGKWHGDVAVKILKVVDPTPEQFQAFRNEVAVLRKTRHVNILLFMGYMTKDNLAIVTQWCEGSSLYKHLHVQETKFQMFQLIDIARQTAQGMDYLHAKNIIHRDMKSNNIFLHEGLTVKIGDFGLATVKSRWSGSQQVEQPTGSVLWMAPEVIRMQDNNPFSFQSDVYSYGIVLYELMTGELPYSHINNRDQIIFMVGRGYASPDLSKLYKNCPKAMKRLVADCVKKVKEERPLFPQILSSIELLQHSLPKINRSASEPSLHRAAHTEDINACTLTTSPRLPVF
T1 sequence (P15056 416-766): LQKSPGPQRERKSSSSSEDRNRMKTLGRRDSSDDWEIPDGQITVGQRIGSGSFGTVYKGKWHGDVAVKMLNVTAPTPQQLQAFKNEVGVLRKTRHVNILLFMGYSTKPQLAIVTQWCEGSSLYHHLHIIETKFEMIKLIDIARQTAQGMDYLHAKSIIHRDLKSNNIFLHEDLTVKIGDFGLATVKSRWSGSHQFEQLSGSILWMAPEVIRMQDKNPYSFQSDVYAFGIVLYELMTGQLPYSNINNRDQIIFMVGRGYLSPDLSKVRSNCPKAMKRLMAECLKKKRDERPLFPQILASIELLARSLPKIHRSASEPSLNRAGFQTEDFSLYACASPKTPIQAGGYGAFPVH

For `Cc1ccc(NC(=O)c2cc(C(F)(F)F)cnn2)cc1-c1ccnc(-c2ccnc(NC(=O)C3CC3)c2)c1` [Example 67], the IC50 in test [1] (setting [7]), in test [1] (setting [8]), in test [2], in test [3] (setting [9]), in test [3] (setting [10]) and in test [4] was less than 100 nM throughout. Moreover, the IC50 in test [5] (setting [11]), in test [5] (setting [12]), in test [6] (setting [13]) and in test [6] (setting [14]) was less than 100 nM each time.

On to `Cc1ccc(NC(=O)c2cc(C#N)cnn2)cc1-c1ccnc(-c2ccnc(NC(=O)C3CC3)c2)c1` [Example 96, 5-cyano-N-(3-(2′-(cyclopropanecarboxamido)-[2,4′-bipyridin]-4-yl)-4-methylphenyl)pyridazine-3-carboxamide], for which the IC50 was less than 100 nM in test [1] (setting [7]); less than 100 nM in test [1] (setting [8]); 1000 to 10000 nM in test [2]; 100 to 500 nM in test [3] (setting [9]); 100 to 500 nM in test [3] (setting [10]); less than 100 nM in test [4]. In addition, the IC50 in test [5] (setting [11]), in test [5] (setting [12]), in test [6] (setting [13]) and in test [6] (setting [14]) was less than 100 nM each time.

With `Cc1ccc(NC(=O)c2cnc(C(F)(F)F)nc2)cc1-c1ccnc(-c2ccnc(NC(=O)C3CC3)c2)c1` [Example 17], the IC50 is 100 to 500 nM in test [1] (setting [7]); 100 to 500 nM in test [1] (setting [8]); less than 100 nM in test [2]; 100 to 500 nM in test [3] (setting [9]); 100 to 500 nM in test [3] (setting [10]); 500 to 1000 nM in test [4]. Moreover, the IC50 in test [5] (setting [11]) is 100 to 500 nM; in test [5] (setting [12]), 100 to 500 nM; in test [6] (setting [13]), less than 100 nM; in test [6] (setting [14]), less than 100 nM.

`Cc1ccc(NC(=O)c2cc(C3CC3)cnn2)cc1-c1ccnc(-c2ccnc(NC(=O)C3CC3)c2)c1` [Example 43]: the IC50 in test [1] (setting [7]), in test [1] (setting [8]), in test [2], in test [3] (setting [9]), in test [3] (setting [10]) and in test [4] was less than 100 nM each time. The IC50 in test [5] (setting [11]), in test [5] (setting [12]), in test [6] (setting [13]) and in test [6] (setting [14]) was less than 100 nM in each case.

Consider `Cc1ccc(NC(=O)c2cc(C(C)(F)F)cnn2)cc1-c1ccnc(-c2ccnc(NC(=O)C3CC3)c2)c1` [Example 57], for which the IC50 in test [1] (setting [7]) was less than 100 nM; in test [1] (setting [8]) it was less than 100 nM; in test [2] it was 100 to 500 nM; in test [3] (setting [9]) it was less than 100 nM; in test [3] (setting [10]), less than 100 nM; in test [4], 1000 to 10000 nM. The IC50 in test [5] (setting [11]), in test [5] (setting [12]), in test [6] (setting [13]) and in test [6] (setting [14]) was less than 100 nM each time.
